Measurements taken from patent US9321776B2, “Isochromene derivatives as phoshoinositide 3-kinases inhibitors” (CHIESI FARMACEUTICI S.p.A., priority 2013, dated 2016).
Counter-ions that a name gives are not always drawn.

Experiments:
Experiment in all cases: PI3K enzyme inhibitory activity in the cell free assay (ADP-Glo Kinase Assay)
Type in all cases: biochemical
PI3Kδ = molecular target: T1, PI3Kδ (Homo sapiens, UniProt O00329); settings: human recombinant PI3Kδ, ATP 80 μM; read-out: PI3K delta inhibition
T1 construct: purchased Millipore Ltd (Billerica, Mass.)
T1 sequence (O00329 1-1044): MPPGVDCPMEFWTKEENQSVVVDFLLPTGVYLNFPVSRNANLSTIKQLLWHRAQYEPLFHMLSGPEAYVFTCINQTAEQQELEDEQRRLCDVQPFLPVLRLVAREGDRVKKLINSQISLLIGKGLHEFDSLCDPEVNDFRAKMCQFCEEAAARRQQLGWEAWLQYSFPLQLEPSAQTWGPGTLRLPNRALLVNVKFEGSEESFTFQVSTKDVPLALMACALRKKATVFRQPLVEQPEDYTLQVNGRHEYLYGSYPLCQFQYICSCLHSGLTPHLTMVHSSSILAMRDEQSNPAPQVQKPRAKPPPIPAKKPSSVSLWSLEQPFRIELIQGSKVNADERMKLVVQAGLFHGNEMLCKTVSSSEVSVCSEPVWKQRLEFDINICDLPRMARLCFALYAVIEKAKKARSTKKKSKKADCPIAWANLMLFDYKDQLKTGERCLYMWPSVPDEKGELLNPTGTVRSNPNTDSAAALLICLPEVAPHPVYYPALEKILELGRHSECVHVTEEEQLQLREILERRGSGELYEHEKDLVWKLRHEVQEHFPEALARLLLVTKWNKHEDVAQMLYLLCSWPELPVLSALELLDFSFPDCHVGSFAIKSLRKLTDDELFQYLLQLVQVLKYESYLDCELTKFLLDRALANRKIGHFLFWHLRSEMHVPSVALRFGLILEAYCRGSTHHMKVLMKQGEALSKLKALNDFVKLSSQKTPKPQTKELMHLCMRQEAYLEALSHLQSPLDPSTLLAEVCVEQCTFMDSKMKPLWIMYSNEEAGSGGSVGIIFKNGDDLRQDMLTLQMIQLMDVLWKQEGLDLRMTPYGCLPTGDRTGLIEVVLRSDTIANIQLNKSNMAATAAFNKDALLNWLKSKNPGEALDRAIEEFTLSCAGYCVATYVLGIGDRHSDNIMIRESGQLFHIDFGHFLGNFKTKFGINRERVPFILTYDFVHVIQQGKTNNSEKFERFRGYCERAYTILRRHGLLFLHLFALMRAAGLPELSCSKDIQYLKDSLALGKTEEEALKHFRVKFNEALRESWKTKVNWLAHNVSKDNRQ

PI3Kβ = molecular target: T2, PI3Kβ (Homo sapiens, UniProt P42338); settings: human recombinant PI3Kβ, ATP 100 μM; read-out: PI3K beta inhibition
T2 construct: purchased Millipore Ltd (Billerica, Mass.)

PI3Kα = molecular target: T3, PI3Kα (Homo sapiens, UniProt P42336); settings: human recombinant PI3Kα, ATP 50 μM; read-out: PI3K alpha inhibition
T3 construct: purchased Millipore Ltd (Billerica, Mass.)

PI3Kγ = molecular target: T4, PI3Kγ (Homo sapiens, UniProt P48736); settings: human recombinant PI3Kγ, ATP 30 μM; read-out: PI3K gamma inhibition
T4 construct: purchased Millipore Ltd (Billerica, Mass.)
T4 sequence (P48736 whole entry): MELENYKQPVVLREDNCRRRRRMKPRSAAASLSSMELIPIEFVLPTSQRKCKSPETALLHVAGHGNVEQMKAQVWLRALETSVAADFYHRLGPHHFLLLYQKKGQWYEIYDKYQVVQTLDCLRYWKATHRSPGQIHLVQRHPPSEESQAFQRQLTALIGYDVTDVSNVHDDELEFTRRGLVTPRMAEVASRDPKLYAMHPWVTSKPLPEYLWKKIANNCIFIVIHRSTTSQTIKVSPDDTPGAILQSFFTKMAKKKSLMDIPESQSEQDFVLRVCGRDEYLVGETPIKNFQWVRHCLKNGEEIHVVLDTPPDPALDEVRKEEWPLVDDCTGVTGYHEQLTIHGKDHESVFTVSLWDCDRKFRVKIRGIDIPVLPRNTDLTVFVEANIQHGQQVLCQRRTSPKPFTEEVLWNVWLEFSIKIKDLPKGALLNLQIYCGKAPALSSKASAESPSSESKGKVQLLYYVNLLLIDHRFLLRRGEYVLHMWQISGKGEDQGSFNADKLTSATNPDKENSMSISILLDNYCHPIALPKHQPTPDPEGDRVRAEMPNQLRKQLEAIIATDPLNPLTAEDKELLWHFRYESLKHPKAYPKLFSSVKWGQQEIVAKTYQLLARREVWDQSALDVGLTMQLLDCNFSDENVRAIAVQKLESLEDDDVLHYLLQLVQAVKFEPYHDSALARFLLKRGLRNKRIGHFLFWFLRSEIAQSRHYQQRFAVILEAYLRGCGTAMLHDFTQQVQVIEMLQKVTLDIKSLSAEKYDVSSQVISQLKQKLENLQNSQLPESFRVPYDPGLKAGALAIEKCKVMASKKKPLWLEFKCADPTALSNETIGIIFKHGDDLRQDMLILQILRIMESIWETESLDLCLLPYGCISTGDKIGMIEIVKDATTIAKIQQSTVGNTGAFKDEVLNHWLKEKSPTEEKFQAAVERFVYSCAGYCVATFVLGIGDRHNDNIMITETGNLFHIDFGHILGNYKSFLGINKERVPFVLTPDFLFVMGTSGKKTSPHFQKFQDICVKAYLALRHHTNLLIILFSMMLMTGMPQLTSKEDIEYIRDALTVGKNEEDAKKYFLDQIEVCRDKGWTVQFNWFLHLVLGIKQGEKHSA

T2 sequence (P42338 whole entry): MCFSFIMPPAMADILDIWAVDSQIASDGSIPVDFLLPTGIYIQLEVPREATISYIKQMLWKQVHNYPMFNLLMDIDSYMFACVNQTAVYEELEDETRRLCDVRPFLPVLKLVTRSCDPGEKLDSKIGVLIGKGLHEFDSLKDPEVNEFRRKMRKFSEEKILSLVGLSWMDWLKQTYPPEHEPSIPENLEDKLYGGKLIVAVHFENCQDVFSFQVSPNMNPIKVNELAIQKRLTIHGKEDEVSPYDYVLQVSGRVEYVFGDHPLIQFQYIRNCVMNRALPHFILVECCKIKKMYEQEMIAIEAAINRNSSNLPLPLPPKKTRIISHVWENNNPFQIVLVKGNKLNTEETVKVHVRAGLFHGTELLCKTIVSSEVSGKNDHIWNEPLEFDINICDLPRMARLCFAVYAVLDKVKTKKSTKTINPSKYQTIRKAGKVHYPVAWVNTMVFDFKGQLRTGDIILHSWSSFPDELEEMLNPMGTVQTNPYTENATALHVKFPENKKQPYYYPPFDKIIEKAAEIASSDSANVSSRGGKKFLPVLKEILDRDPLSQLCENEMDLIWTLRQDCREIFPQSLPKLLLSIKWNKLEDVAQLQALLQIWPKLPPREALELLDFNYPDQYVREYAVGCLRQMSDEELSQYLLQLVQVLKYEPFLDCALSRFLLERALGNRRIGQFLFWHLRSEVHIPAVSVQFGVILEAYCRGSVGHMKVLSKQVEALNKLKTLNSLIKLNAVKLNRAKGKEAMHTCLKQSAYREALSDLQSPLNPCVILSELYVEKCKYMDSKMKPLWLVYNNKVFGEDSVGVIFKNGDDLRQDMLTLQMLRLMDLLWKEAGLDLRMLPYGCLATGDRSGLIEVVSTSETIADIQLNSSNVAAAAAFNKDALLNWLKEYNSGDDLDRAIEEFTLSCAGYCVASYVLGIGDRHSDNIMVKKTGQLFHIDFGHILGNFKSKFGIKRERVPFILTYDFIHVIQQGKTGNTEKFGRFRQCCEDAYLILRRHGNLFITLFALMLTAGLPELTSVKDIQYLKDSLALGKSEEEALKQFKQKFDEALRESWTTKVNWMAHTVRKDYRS
T3 sequence (P42336 whole entry): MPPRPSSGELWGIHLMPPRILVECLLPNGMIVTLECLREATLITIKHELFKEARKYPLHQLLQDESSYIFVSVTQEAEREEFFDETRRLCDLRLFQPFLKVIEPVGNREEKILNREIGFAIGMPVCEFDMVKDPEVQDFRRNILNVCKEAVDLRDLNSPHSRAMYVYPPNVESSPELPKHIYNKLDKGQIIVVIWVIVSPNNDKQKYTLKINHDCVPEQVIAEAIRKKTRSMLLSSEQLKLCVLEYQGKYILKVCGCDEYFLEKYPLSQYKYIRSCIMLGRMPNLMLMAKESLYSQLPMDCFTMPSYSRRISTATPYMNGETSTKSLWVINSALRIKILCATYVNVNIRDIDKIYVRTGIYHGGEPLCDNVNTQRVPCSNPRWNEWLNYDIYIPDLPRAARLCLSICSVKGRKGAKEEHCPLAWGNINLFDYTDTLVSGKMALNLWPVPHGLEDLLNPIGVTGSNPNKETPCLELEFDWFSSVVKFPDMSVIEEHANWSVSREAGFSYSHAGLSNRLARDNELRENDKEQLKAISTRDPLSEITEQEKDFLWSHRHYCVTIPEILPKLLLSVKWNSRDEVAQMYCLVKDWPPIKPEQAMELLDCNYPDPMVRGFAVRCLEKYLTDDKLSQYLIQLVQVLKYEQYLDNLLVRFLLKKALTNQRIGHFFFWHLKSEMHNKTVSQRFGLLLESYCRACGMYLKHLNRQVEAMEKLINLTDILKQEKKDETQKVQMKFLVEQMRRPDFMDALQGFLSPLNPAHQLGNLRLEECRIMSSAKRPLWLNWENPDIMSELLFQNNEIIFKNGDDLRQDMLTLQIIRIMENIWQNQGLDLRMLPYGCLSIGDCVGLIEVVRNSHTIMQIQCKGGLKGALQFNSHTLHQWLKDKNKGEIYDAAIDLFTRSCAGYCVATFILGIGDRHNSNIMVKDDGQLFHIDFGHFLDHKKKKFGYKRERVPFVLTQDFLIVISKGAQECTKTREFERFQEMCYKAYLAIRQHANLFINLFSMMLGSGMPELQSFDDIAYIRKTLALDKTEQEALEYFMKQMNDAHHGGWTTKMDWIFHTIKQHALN

IC50 (PI3Kδ) [nM]	IC50 (PI3Kβ) [nM]	IC50 (PI3Kα) [nM]	IC50 (PI3Kγ) [nM]	Structure (SMILES)
< 10	10 to 1000	10 to 1000	10 to 1000	CC(c1oc(=O)c2ccccc2c1-c1ccccn1)n1nc(-c2cc(O)cc(F)c2)c2c(N)ncnc21 (stereo not shown) [Example 170, 3-(1-(4-amino-3-(3-fluoro-5-hydroxyphenyl)-1H-pyrazolo[3,4-d]pyrimidin-1-yl)ethyl)-4-(pyridin-2-yl)-1H-isochromen-1-one hydrochloride]
< 10	< 10	10 to 1000	10 to 1000	CC(c1oc(=O)c2ccccc2c1C1=CCN(C)CC1)n1nc(-c2cncc(O)c2)c2c(N)ncnc21 (stereo not shown) [Example 175, 3-(1-(4-amino-3-(5-hydroxypyridin-3-yl)-1H-pyrazolo[3,4-d]pyrimidin-1-yl)ethyl)-4-(1-methyl-1,2,3,6-tetrahydropyridin-4-yl)-1H-isochromen-1-one hydrochloride]
< 10	10 to 1000	10 to 1000	10 to 1000	COc1ccc(-c2nn(C(C)c3oc(=O)c4ccccc4c3-c3ccccc3)c3ncnc(N)c23)cn1 (stereo not shown) [Example 60, 3-(1-(4-amino-3-(6-methoxypyridin-3-yl)-1H-pyrazolo[3,4-d]pyrimidin-1-yl)ethyl)-4-phenyl-1H-isochromen-1-one]

Further lines, the compound ahead of its results:

Structure (SMILES)	IC50 (PI3Kδ) [nM]	IC50 (PI3Kβ) [nM]	IC50 (PI3Kα) [nM]	IC50 (PI3Kγ) [nM]
CC(c1oc(=O)c2ccccc2c1-c1ccccc1)n1nc(-c2cnc(C(F)(F)F)c(O)c2)c2c(N)ncnc21 (stereo not shown) [Example 161, 3-(1-(4-amino-3-(5-hydroxy-6-(trifluoromethyl)pyridin-3-yl)-1H-pyrazolo[3,4-d]pyrimidin-1-yl)ethyl)-4-phenyl-1H-isochromen-1-one]	< 10	> 1000	> 1000	> 1000
CC(c1oc(=O)c2ccccc2c1CN1CCOCC1)n1nc(-c2cc(O)cc(F)c2)c2c(N)ncnc21 (stereo not shown) [Example 130, 3-(1-(4-amino-3-(3-fluoro-5-hydroxyphenyl)-1H-pyrazolo[3,4-d]pyrimidin-1-yl)ethyl)-4-(morpholinomethyl)-1H-isochromen-1-one]	< 10	10 to 1000	10 to 1000	10 to 1000
CC(Nc1ncnc2[nH]cnc12)c1oc(=O)c2ccccc2c1C1=CCN(C)CC1 (stereo not shown) [Example 45, 3-(1-(9H-purin-6-ylamino)ethyl)-4-(1-methyl-1,2,3,6-tetrahydropyridin-4-yl)-1H-isochromen-1-one hydrochloride]	< 10	> 1000	> 1000	> 1000
CC(=O)N1CC=C(c2c(C(C)n3nc(-c4cncc(O)c4)c4c(N)ncnc43)oc(=O)c3ccccc23)CC1 (stereo not shown) [Example 71, 4-(1-acetyl-1,2,3,6-tetrahydropyridin-4-yl)-3-(1-(4-amino-3-(5-hydroxypyridin-3-yl)-1H-pyrazolo[3,4-d]pyrimidin-1-yl)ethyl)-1H-isochromen-1-one]	< 10	10 to 1000	10 to 1000	10 to 1000
CC(Nc1ncnc2[nH]cnc12)c1oc(=O)c2ccccc2c1-c1cnc(N)nc1 (stereo not shown) [Example 124, 3-(1-(9H-purin-6-ylamino)ethyl)-4-(2-aminopyrimidin-5-yl)-1H-isochromen-1-one]	10 to 1000	> 1000	> 1000	> 1000
CC(c1oc(=O)c2ccccc2c1-c1cncs1)n1nc(-c2cc(O)cc(F)c2)c2c(N)ncnc21 (stereo not shown) [Example 120, 3-(1-(4-amino-3-(3-fluoro-5-hydroxyphenyl)-1H-pyrazolo[3,4-d]pyrimidin-1-yl)ethyl)-4-(thiazol-5-yl)-1H-isochromen-1-one]	< 10	10 to 1000	10 to 1000	10 to 1000
CC(C)N1CCC=C(c2c(C(C)n3nc(-c4cc(O)cc(F)c4)c4c(N)ncnc43)oc(=O)c3ccccc23)C1 (stereo not shown) [Example 174, 3-(1-(4-amino-3-(3-fluoro-5-hydroxyphenyl)-1H-pyrazolo[3,4-d]pyrimidin-1-yl)ethyl)-4-(1-isopropyl-1,2,5,6-tetrahydropyridin-3-yl)-1H-isochromen-1-one hydrochloride]	10 to 1000	10 to 1000	10 to 1000	10 to 1000
